Experimental data from patent publication US20090036450A1, “PYRAZOLE COMPOUNDS AND USE THEREOF” (JAPAN TOBACCO, INC., priority 2006, published 2009).

target: T1, human liver glycogen phosphorylase (Homo sapiens, UniProt P06737); assay: Liver glycogen phosphorylase activity, forward reaction system (NADPH detection at 340 nm); assay type: biochemical; conditions: enzyme inhibitory activity against recombinant human liver glycogen phosphorylase (Sf9 cell lysate), room temperature, 75 minutes
T1 construct: made in house; host or cells: Sf9 insect cells (suspension of disrupted cells, diluted in BES buffer, not purified)
T1 sequence (P06737 1-847): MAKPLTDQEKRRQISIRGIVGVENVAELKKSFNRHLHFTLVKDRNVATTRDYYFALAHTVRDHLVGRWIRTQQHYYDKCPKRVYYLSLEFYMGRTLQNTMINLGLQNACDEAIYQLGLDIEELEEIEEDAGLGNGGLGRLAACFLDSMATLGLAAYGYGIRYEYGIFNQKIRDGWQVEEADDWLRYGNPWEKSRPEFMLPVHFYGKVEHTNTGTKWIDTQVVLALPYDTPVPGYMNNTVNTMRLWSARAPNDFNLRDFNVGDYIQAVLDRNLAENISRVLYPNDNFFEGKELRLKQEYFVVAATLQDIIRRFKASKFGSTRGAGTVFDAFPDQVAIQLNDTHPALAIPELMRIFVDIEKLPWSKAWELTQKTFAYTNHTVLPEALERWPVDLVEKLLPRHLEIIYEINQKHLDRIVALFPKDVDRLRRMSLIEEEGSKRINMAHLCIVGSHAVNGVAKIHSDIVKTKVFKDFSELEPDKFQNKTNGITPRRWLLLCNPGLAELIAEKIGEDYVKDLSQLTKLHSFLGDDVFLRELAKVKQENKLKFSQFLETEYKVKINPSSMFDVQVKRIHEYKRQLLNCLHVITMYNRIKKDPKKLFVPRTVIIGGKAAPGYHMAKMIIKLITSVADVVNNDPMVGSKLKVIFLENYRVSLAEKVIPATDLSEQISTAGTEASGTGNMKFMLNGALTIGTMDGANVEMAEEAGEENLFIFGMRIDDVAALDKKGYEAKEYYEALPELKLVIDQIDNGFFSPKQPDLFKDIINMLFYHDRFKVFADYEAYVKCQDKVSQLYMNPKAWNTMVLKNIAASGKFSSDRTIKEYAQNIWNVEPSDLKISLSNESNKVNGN
Outline: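 Recombinant human liver glycogen phosphorylase from Sf9 lysate, run in forward direction with glycogen and phosphate substrate plus glucose, coupled via phosphoglucomutase/G6PDH to NADPH formation. BES buffer pH 6.8, room temperature, 75 min; A340 change minus blank gives activity. IC50 from percent inhibition vs DMSO control.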

Row | SMILES | IC50
1 | O=C(NCc1nnc(-c2cccc([N+](=O)[O-])c2)o1)c1cc(NC(=O)c2cc(F)c(F)cc2Cl)[nH]n1 [Example 1-56, 5-(2-chloro-4,5-difluoro-benzoylamino)-1H-pyrazole-3-carboxylic acid [5-(3-nitro-phenyl)-[1,3,4]oxadiazol-2-ylmethyl]-amide] | < 100 nM
2 | O=C(NCc1nnc(-c2cccc(Cl)c2)o1)c1cc(NC(=O)c2cc(F)c(F)cc2Cl)[nH]n1 [Example 1-59, 5-(2-chloro-4,5-difluoro-benzoylamino)-1H-pyrazole-3-carboxylic acid [5-(3-chloro-phenyl)-[1,3,4]oxadiazol-2-ylmethyl]-amide] | < 100 nM
3 | Cc1nc(CCc2ccccc2)c(CNC(=O)c2cc(NC(=O)c3cc(F)c(F)cc3Cl)[nH]n2)o1 [Example 1-33, 5-(2-chloro-4,5-difluoro-benzoylamino)-1H-pyrazole-3-carboxylic acid (2-methyl-4-phenethyl-oxazol-5-ylmethyl)-amide] | < 100 nM
4 | COc1ccc(Cc2nc(CNC(=O)c3cc(NC(=O)c4cc(F)c(F)cc4Cl)[nH]n3)n[nH]2)cc1OC [Example 1-88, 5-(2-chloro-4,5-difluoro-benzoylamino)-1H-pyrazole-3-carboxylic acid [5-(3,4-dimethoxy-benzyl)-1H-[1,2,4]triazol-3-ylmethyl]-amide] | < 100 nM
5 | Cc1cccc(-c2onc(C)c2CNC(=O)c2cc(NC(=O)c3cc(F)c(F)cc3Cl)[nH]n2)n1 [Example 1-19, 5-(2-chloro-4,5-difluoro-benzoylamino)-1H-pyrazole-3-carboxylic acid [3-methyl-5-(6-methyl-pyridin-2-yl)-isoxazol-4-ylmethyl]-amide] | < 100 nM
6 | Cc1cc(-c2onc(C)c2CNC(=O)c2cc(NC(=O)c3cc(F)c(F)cc3Cl)[nH]n2)no1 [Example 1-18, 5-(2-chloro-4,5-difluoro-benzoylamino)-1H-pyrazole-3-carboxylic acid (5,3′-dimethyl-[3,5′]biisoxazolyl-4′-ylmethyl)-amide] | < 100 nM
7 | Cc1onc(-c2ccccc2F)c1CNC(=O)c1cc(NC(=O)c2cc(F)c(F)cc2Cl)[nH]n1 [Example 1-17, 5-(2-chloro-4,5-difluoro-benzoylamino)-1H-pyrazole-3-carboxylic acid [3-(2-fluoro-phenyl)-5-methylisoxazol-4-ylmethyl]-amide] | 100 to 300 nM
8 | Cc1c(CNC(=O)c2cc(NC(=O)c3cc(F)c(F)cc3Cl)[nH]n2)nnn1Cc1ccc(Cl)cc1 [Example 1-63, 5-(2-chloro-4,5-difluoro-benzoylamino)-1H-pyrazole-3-carboxylic acid [1-(4-chloro-benzyl)-5-methyl-1H-[1,2,3]triazol-4-ylmethyl]-amide] | < 100 nM
9 | Cc1nc(-c2ccc(-c3ccccc3)cc2)c(CNC(=O)c2cc(NC(=O)c3cc(F)c(F)cc3Cl)[nH]n2)o1 [Example 1-32, 5-(2-chloro-4,5-difluoro-benzoylamino)-1H-pyrazole-3-carboxylic acid (4-biphenyl-4-yl-2-methyl-oxazol-5-ylmethyl)-amide] | < 100 nM
10 | Cc1nc(-c2cc3ccccc3s2)sc1CNC(=O)c1cc(NC(=O)c2cc(F)c(F)cc2Cl)[nH]n1 [Example 1-9, 5-(2-chloro-4,5-difluoro-benzoylamino)-1H-pyrazole-3-carboxylic acid (2-benzo[b]thiophen-2-yl-4-methyl-thiazol-5-ylmethyl)-amide] | < 100 nM
11 | Cc1nc(-c2ccc(CNC(=O)c3cc(NC(=O)c4cc(F)c(F)cc4Cl)[nH]n3)s2)cs1 [Example 1-4, 5-(2-chloro-4,5-difluoro-benzoylamino)-1H-pyrazole-3-carboxylic acid [5-(2-methyl-thiazol-4-yl)-thiophen-2-ylmethyl]-amide] | < 100 nM
12 | Cc1nc(Cc2ccccc2)c(CNC(=O)c2cc(NC(=O)c3cc(F)c(F)cc3Cl)[nH]n2)o1 [Example 1-36, 5-(2-chloro-4,5-difluoro-benzoylamino)-1H-pyrazole-3-carboxylic acid (4-benzyl-2-methyl-oxazol-5-ylmethyl)-amide p-toluenesulfonate] | < 100 nM
13 | CCN(CC)S(=O)(=O)c1ccsc1CNC(=O)c1cc(NC(=O)c2cc(F)c(F)cc2Cl)[nH]n1 [Example 1-2, 5-(2-chloro-4,5-difluoro-benzoylamino)-1H-pyrazole-3-carboxylic acid (3-diethylsulfamoyl-thiophen-2-ylmethyl)-amide] | 100 to 300 nM
14 | O=C(NCc1cnn(-c2ccc(F)cc2)c1C1CC1)c1cc(NC(=O)c2cc(F)c(F)cc2Cl)[nH]n1 [Example 1-67, 5-(2-chloro-4,5-difluoro-benzoylamino)-1H-pyrazole-3-carboxylic acid [5-cyclopropyl-1-(4-fluoro-phenyl)-1H-pyrazol-4-ylmethyl]-amide] | < 100 nM
15 | COc1cccc(-c2nnc(CNC(=O)c3cc(NC(=O)c4cc(F)c(F)cc4Cl)[nH]n3)o2)c1 [Example 1-60, 5-(2-chloro-4,5-difluoro-benzoylamino)-1H-pyrazole-3-carboxylic acid [5-(3-methoxy-phenyl)-[1,3,4]oxadiazol-2-ylmethyl]-amide] | < 100 nM
16 | CCOC(=O)c1oc(CNC(=O)c2cc(NC(=O)c3cc(F)c(F)cc3Cl)[nH]n2)nc1C [Example 1-51, 5-(2-chloro-4,5-difluoro-benzoylamino)-1H-pyrazole-3-carboxylic acid (5-ethoxycarbonyl-4-methyl-oxazol-2-ylmethyl)-amide] | < 100 nM
17 | Cc1nc(COCC(F)(F)F)oc1CNC(=O)c1cc(NC(=O)c2cc(F)c(F)cc2Cl)[nH]n1 [Example 1-46] | < 100 nM
18 | CCOC(=O)c1cc(CNC(=O)c2cc(NC(=O)c3cc(F)c(F)cc3Cl)[nH]n2)on1 [Example 1-23, 5-(2-chloro-4,5-difluoro-benzoylamino)-1H-pyrazole-3-carboxylic acid (3-ethoxycarbonylisoxazol-5-ylmethyl)-amide] | < 100 nM
19 | Cc1nc(C)c(-c2onc(C)c2CNC(=O)c2cc(NC(=O)c3cc(F)c(F)cc3Cl)[nH]n2)s1 [Example 1-22, 5-(2-chloro-4,5-difluoro-benzoylamino)-1H-pyrazole-3-carboxylic acid [5-(2,4-dimethyl-thiazol-5-yl)-3-methylisoxazol-4-ylmethyl]-amide] | < 100 nM

More lines, now with the values ahead:

Row | IC50 | SMILES
20 | < 100 nM | Cc1nc(COCC(=O)N2CCOCC2)oc1CNC(=O)c1cc(NC(=O)c2cc(F)c(F)cc2Cl)[nH]n1 [Example 3-10, 5-(2-chloro-4,5-difluoro-benzoylamino)-1H-pyrazole-3-carboxylic acid [4-methyl-2-(2-morpholin-4-yl-2-oxo-ethoxymethyl)-oxazol-5-ylmethyl]-amide]
21 | < 100 nM | Cc1nc(COC(=O)C2CCCCC2)c(CNC(=O)c2cc(NC(=O)c3cc(F)c(F)cc3Cl)[nH]n2)o1 [Example 3-23, 5-(2-chloro-4,5-difluoro-benzoylamino)-1H-pyrazole-3-carboxylic acid (4-cyclohexanecarbonyloxymethyl-2-methyl-oxazol-5-ylmethyl)-amide]
22 | < 100 nM | O=C(NCc1ccc(C(=O)O)o1)c1cc(NC(=O)c2cc(F)c(F)cc2Cl)[nH]n1 [Example 3-1, 5-(2-chloro-4,5-difluoro-benzoylamino)-1H-pyrazole-3-carboxylic acid (2-carboxy-furan-5-ylmethyl)-amide]
23 | < 100 nM | Cc1nc(COCC(=O)NCc2ccccc2)oc1CNC(=O)c1cc(NC(=O)c2cc(F)c(F)cc2Cl)[nH]n1 [Example 3-9, 5-(2-chloro-4,5-difluoro-benzoylamino)-1H-pyrazole-3-carboxylic acid [2-(benzylcarbamoyl-methoxymethyl)-4-methyl-oxazol-5-ylmethyl]-amide]
24 | < 100 nM | Cc1nc(C(=O)O)sc1CNC(=O)c1cc(NC(=O)c2cc(F)c(F)cc2Cl)[nH]n1 [Example 3-2, sodium 5-({[5-(2-chloro-4,5-difluoro-benzoylamino)-1H-pyrazole-3-carbonyl]-amino}-methyl)-4-methyl-thiazole-2-carboxylate]
25 | < 100 nM | Cc1nc(C(=O)O)c(CNC(=O)c2cc(NC(=O)c3cc(F)c(F)cc3Cl)[nH]n2)o1 [Example 3-6, 5-(2-chloro-4,5-difluoro-benzoylamino)-1H-pyrazole-3-carboxylic acid (4-carboxy-2-methyl-oxazol-5-ylmethyl)-amide]
26 | < 100 nM | Cc1nc(CNC(=O)c2ccc(Cl)cc2)oc1CNC(=O)c1cc(NC(=O)c2cc(F)c(F)cc2Cl)[nH]n1 [Example 3-13, 5-(2-chloro-4,5-difluoro-benzoylamino)-1H-pyrazole-3-carboxylic acid {2-[(4-chloro-benzoylamino)-methyl]-4-methyl-oxazol-5-ylmethyl}-amide]
